US11413297B2, “Therapies for treating and preventing chronic rhinosinusitis” (Avanti Polar Lipids, LLC, priority 2017, dated 2022)

Key:
Type in all cases: cell-based
[1] = system: MRSA; test: Inhibition of growth of planktonic MRSA, OD600 (Example 10); conditions: in combination with gentamicin, compared to gentamicin alone; 6 h; phospholipid 256, 512, 1024 μg/ml
Experimental: (§1) We performed in vitro studies of the capacity of phospholipids together with antibiotics to inhibit the growth of planktonic bacteria. The tests were conducted as follows. Freshly grown MRSA was quantitated and placed in 96-well plates together with gentamicin alone, phospholipids plus gentamicin, or control solutions. Two different phospholipids (MAPCHO-10 and MAPCHO-12) were tested at three different phospholipid test concentrations (256 μg/ml, 512 μg/ml, and 1024 μg/ml). After 24 hours at 37 degrees C., media was removed and fresh medium was added and the 96-well plates were incubated at 37 degrees C. for 6 hours. Bacterial density was then analyzed and measured at OD600.

[2] = system: S. aureus; test: Inhibition of growth of planktonic S. aureus, OD600 (Example 8); conditions: in combination with gentamicin, compared to gentamicin alone; 6 h; phospholipid 256, 512, 1024 μg/ml
Experimental: as §1, with “S. aureus” for “MRSA”

[3] = system: S. aureus biofilm formation; test: Prevention of S. aureus biofilm formation at 6 h, crystal violet (Example 9); conditions: in combination with gentamicin, phospholipid 256, 512, 1024 μg/ml
Experimental: We performed in vitro tests of the capacity of phospholipids together with antibiotics to prevent formation of biofilms. Freshly grown S. aureus was quantitated and placed in 96-well plates together with gentamicin alone, phospholipids plus gentamicin, or control solutions. Two different phospholipids ([…]-10 and […]-12) were tested at three different phospholipid test concentrations (256 μg/ml, 512 μg/ml, and 1024 μg/ml). After 6 hours at 37 degrees C., the fluids were removed and the wells stained with crystal violet, and then the density of crystal violet in the wells was quantitated.

[4] = system: P. aeruginosa; test: Inhibition of growth of planktonic P. aeruginosa, OD600 (Example 4); conditions: in combination with gentamicin, compared to gentamicin alone, phospholipid 1024 and 2048 μg/ml
Experimental: We performed in vitro studies of the capacity of phospholipids together with antibiotics to inhibit the growth of planktonic bacteria. The tests were conducted as follows. Freshly grown P. aeruginosa was quantitated and placed in 96-well plates together with gentamicin alone, phospholipids plus gentamicin, or control solutions. Four different phospholipids (MAPCHO-10, MAPCHO-12, MAPCHO-14, and MAPCHO-16) were tested at two different phospholipid test concentrations (1024 μg/ml and 2048 μg/ml). After 24 hours at 37 degrees C., media was removed and fresh medium was added and the 96-well plates were incubated at 37 degrees C. for either 6 hours or 24 hours. Bacterial density was then analyzed and measured at OD600.

[5] = system: P. aeruginosa; test: Prevention of P. aeruginosa bacterial growth, OD600 after 24 h (Example 6); conditions: in combination with gentamicin, phospholipid 512, 1024, 2048 μg/ml, FIGS. 9A-9C
Experimental: We performed in vitro studies of the capacity of phospholipids together with antibiotics to prevent bacterial growth. Freshly grown P. aeruginosa was quantitated and placed in 96-well plates together with gentamicin alone, phospholipids plus gentamicin, or control solutions. Three different phospholipids (MAPCHO-12, MAPCHO-14, and MAPCHO-16) were tested at three different phospholipid test concentrations (512 μg/ml, 1024 μg/ml, and 2048 μg/ml). After 24 hours at 37 degrees C., bacterial density was then analyzed and measured at OD600.

[6] = system: preformed P. aeruginosa biofilms; test: Disruption of preformed P. aeruginosa biofilms, crystal violet (Example 3); conditions: for disruption of preformed P. aeruginosa biofilms: 6 h time point; for eradication of preformed P. aeruginosa biofilms: 24 h time point, FIGS. 5A-5C
Experimental: We performed in vitro studies of the capacity of phospholipids together with antibiotics to disrupt preformed bacterial biofilms. The tests were conducted as follows. Biofilm formation was obtained by culturing P. aeruginosa in cation-adjusted Mueller Hinton Broth after incubation at 37 degrees C. for 24 hours in 96 well plates. The medium was then removed and replaced by treatment solutions of gentamicin, phospholipids plus gentamicin, or control solutions. Either three or four different phospholipids (MAPCHO-10, MAPCHO-12, MAPCHO-14, and MAPCHO-16) were tested at three different phospholipid test concentrations (512 μg/ml, 1024 μg/ml, and 2048 μg/ml). After 24 hours at 37 degrees C., media was removed and fresh medium was added and the 96-well plates were incubated at 37 degrees C. for either 6 hours or 24 hours. Media were then removed and biofilm at the base of the wells was stained with crystal violet and quantitated.

[7] = system: P. aeruginosa in preformed biofilm; test: Bacterial density of P. aeruginosa in preformed biofilm, OD600 (Example 7); conditions: in combination with gentamicin; 6 h; phospholipid 512, 1024, 2048 μg/ml; FIGS. 10A-10D
Experimental: We performed in vitro studies of the capacity of phospholipids together with antibiotics to eradicate preformed bacterial biofilms. The tests were conducted as follows. Biofilm formation was obtained by culturing P. aeruginosa in cation-adjusted Mueller Hinton Broth after incubation at 37 degrees C. for 24 hours in 96 well plates. The medium was then removed and replaced by treatment solutions of gentamicin, phospholipids plus gentamicin, or control solutions. Four different phospholipids (MAPCHO-10, MAPCHO-12, MAPCHO-14, and MAPCHO-16) were tested at three different phospholipid test concentrations (512 μg/ml, 1024 μg/ml, and 2048 μg/ml). After 24 hours at 37 degrees C., media was removed and fresh medium was added and the 96-well plates were incubated at 37 degrees C. for 6 hours. Bacterial density was then analyzed and measured at OD600.

[8] = system: P. aeruginosa biofilm formation; test: Prevention of P. aeruginosa biofilm formation, crystal violet (Example 5); conditions: 24 h
Experimental: We performed in vitro tests of the capacity of phospholipids together with antibiotics to prevent formation of biofilms. Freshly grown P. aeruginosa was quantitated and placed in 96-well plates together with gentamicin alone, phospholipids plus gentamicin, or control solutions. Four different phospholipids (MAPCHO-10, MAPCHO-12, MAPCHO-14, and MAPCHO-16) were tested at two different phospholipid test concentrations (1024 μg/ml and 2048 μg/ml). After 24 hours at 37 degrees C., the fluids were removed and the wells stained with crystal violet, and then the density of crystal violet in the wells was quantitated.

[9] = system: S. aureus (NCTC 8325) biofilm formation; test: Prevention of S. aureus (NCTC 8325) biofilm formation, crystal violet at 540 nm (Example 12); conditions: agent alone (antibiotic alone at low concentrations, or phospholipid alone); 24 hours
Experimental: We also performed in vitro tests of the capacity of phospholipids together with antibiotics to prevent formation of biofilms. Freshly grown S. aureus (NCTC 8325) were quantitated and placed in 96-well plates together with phospholipids plus gentamicin and tobramycin (antibiotics) or antibiotics alone. After 24 hours at 37 degrees C., the fluids were removed and the wells stained with crystal violet, and then the density of crystal violet in the wells was quantitated by absorption of light at 540 nm.

[10] = system: preformed S. aureus (ATCC BAA-1720) biofilms; test: Disruption of preformed S. aureus biofilm, crystal violet staining (Example 1); conditions: agent alone (gentamicin alone or phospholipid alone)
Experimental: We performed in vitro studies of the capacity of phospholipids together with antibiotics to disrupt preformed bacterial biofilms. The tests were conducted as follows. Biofilm formation was obtained by culturing (1) S. aureus in tryptic soy broth media supplemented with 5% glucose; and (2) P. aeruginosa in cation-adjusted Mueller Hinton Broth after incubation at 37 degrees C. for 24 hours in 96 well plates. The medium was then removed and replaced by treatment solutions of antibiotics, antibiotics+phospholipids, phospholipids alone, or control solutions. Phospholipid concentration used in the assays was 512 μg/ml although in some studies, was […]. After 24 hours at 37 degrees C., media was removed and fresh medium was added and the 96-well plates incubated at 37 degrees C. for 24 hours. Media were then removed and biofilm at the base of the wells was stained with crystal violet and quantitated.

[11] = system: S. aureus (ATCC BAA-1720) biofilm formation; test: Prevention of S. aureus biofilm formation, crystal violet at 540 nm (Example 2); conditions: agent alone (gentamicin alone at low concentrations, or phospholipid alone); 24 hours
Experimental: We also performed in vitro tests of the capacity of phospholipids together with antibiotics to prevent formation of biofilms. Freshly grown S. aureus and P. aeruginosa were quantitated and placed in 96-well plates together with phospholipids plus gentamicin and tobramycin (antibiotics), phospholipids alone, antibiotics alone or controls solution. After 24 hours at 37 degrees C., the fluids were removed and the wells stained with crystal violet, and then the density of crystal violet in the wells was quantitated by absorption of light at 540 nm.

[12] = in combination with gentamicin, phospholipid 512, 1024 and 2048 μg/ml, FIGS. 4B-4D
[13] = in combination with gentamicin, phospholipid 512, 1024 and 2048 μg/ml
[14] = in combination with gentamicin, phospholipid 1024 or 2048 μg/ml, FIGS. 8B, 8C

Compound	inhibition of P. aeruginosa bacterial growth relative to gentamicin alone [5]	disruption of preformed P. aeruginosa biofilms [6, 12]	eradication of preformed P. aeruginosa biofilms [6, 13]	inhibition of P. aeruginosa bacterial growth in preformed biofilm relative to gentamicin alone [7]	prevention of P. aeruginosa biofilm formation [8, 14]	prevention of biofilm formation by S. aureus (NCTC 8325) [9]	also measured
CCCCCCCCCCOP(=O)([O-])OCC[N+](C)(C)C [MAPCHO-10, N-decylphosphocholine]							inhibition of MRSA growth [1]: moderate inhibition; inhibition of S. aureus growth [2]: moderate inhibition; prevention of S. aureus biofilm formation compared to gentamicin alone [3]: more effective
CCCCCCCCCCCCCCOP(=O)([O-])OCC[N+](C)(C)C [MAPCHO-14, N-tetradecylphosphocholine]	more effective	disruption of P. aeruginosa biofilms occurs	nearly complete eradication	more effective	effective at preventing		inhibition of P. aeruginosa growth ([4]; 6 h time point): moderate inhibition; inhibition of P. aeruginosa growth ([4]; 24 h time point): significant inhibition
CCCCCCCCCCCCCCCCOP(=O)([O-])OCC[N+](C)(C)C [MAPCHO-16]	more effective	disruption of P. aeruginosa biofilms occurs	nearly complete eradication	more effective	effective at preventing		
NC[C@H]1O[C@H](O[C@H]2[C@H](O)[C@@H](O[C@H]3O[C@H](CO)[C@@H](O)[C@H](N)[C@H]3O)[C@H](N)C[C@@H]2N)[C@H](N)C[C@@H]1O [tobramycin, reference compound]						did not prevent the formation of the biofilm	
gentamicin [reference compound]						did not prevent the formation of the biofilm	disruption of preformed biofilm of S. aureus [10]: not successful; disruption of preformed P. aeruginosa biofilms ([6]; gentamicin alone, FIG. 4A): did not induce biofilm disruption; prevention of biofilm formation by S. aureus [11]: does not prevent the formation of the biofilm; prevention of P. aeruginosa biofilm formation ([8]; gentamicin alone, FIG. 8A): unable to prevent
